From patent publication US20240382494A1, “THERAPEUTIC COMPOUNDS” (priority 2023, published 2024)
Read-outs that look alike come from different tables or passages of the source.

Columns and labels:
SARS-CoV-2 PLpro = SARS-CoV-2 PLpro (Severe acute respiratory syndrome coronavirus 2, UniProt P0DTD1); assay: FRET-based PLpro enzymatic assay; type: biochemical
Experimental: The SARS-CoV-2 PL^pro enzymatic assays were carried out as follows. The assay was assembled in 96-well plates with 100 μl of 200 nM PL^Pro protein in PL^Pro reaction buffer [50 mM Hepes (pH 7.5), 0.01% Triton X-100, and 5 mM DTT]. Then, 1 μl of testing compound at various concentrations was added to each well and incubated at 30° C. for 30 minutes. The enzymatic reaction was initiated by adding 1 μl of 1 mM FRET substrate (the final substrate concentration is 10 μM). The reaction was monitored in a Cytation 5 image reader with filters for excitation at 360/40 nm and emission at 460/40 nm at 30° C. for 1 hour. The initial velocity of the enzymatic reaction with and without testing compounds was calculated by linear regression for the first 15 minutes of the kinetic progress curve. The IC50 values were calculated by plotting the initial velocity against various concentrations of testing compounds with a dose-response function in Prism 8 software.

[1] = Cytotoxicity assay in Vero E6 cells (neutral red uptake); type: cell-based; settings: African green monkey
Experimental: Briefly, 80.000 cells/ml of the tested cell lines were dispensed into 96-well cell culture plates at 100 μl per well Twenty-four hours later, the growth medium was removed and washed with 150 μl of PBS buffer. Two hundred microliters of fresh serum-free medium containing serial diluted compounds was added to each well. After incubating for 2 days at 37° C., the medium was removed and replaced with 100 μl of DMEM medium containing neutral red (40 μg/ml) and incubated for 2 to 4 hours at 37° C. The amount of neutral red taken up was determined by measuring the absorbance at 540 nm using a Multiskan FC Microplate Photometer (Thermo Fisher Scientific) The CC50 values were calculated from best-fit dose-response curves with variable slope in Prism 8.

[2] = 200 nM PLpro, 10 μM FRET substrate, 30 min preincubation at 30° C., read-out: IC50
[3] = Vero E6 cells, 2 days at 37° C., neutral red uptake, read-out: Vero CC50

| Compound | IC50 (SARS-CoV-2 PLpro) [µM] | CC50 at 2 days [1] [µM] | IC50 (SARS-CoV-2 PLpro; [2]) [µM] | CC50 at 2 days [1, 3] [µM] |
| --- | --- | --- | --- | --- |
| Cc1ccc(N2CC3CCC(C2)N3C)cc1C(=O)NC1(c2cc(-c3cnn(C)c3)nc3ccccc23)CC1 [Example 112, 2-methyl-N-(1-(2-(1-methyl-1H-pyrazol-4-yl)quinolin-4-yl)cyclopropyl)-5-(8-methyl-3,8-diazabicyclo[3.2.1]octan-3-yl)benzamide] | < 0.5 | 53.8 ± 2.52 |  |  |
| Cc1ccc(OCCN(C)C)cc1C(=O)N[C@H](C)c1cc(-c2cnn(CCN(C)C)c2)nc2ccccc12 [Example 12, (R)-5-(2-(dimethylamino)ethoxy)-N-(1-(2-(1-(2-(dimethylamino)ethyl)-1H-pyrazol-4-yl)quinolin-4-yl)ethyl)-2-methylbenzamide] |  |  | < 0.5 | 114 ± 18.7 |
| Cc1ccc(OC[C@@H]2C[C@@H](F)CN2C)cc1C(=O)NC1(c2cc(-c3cnn(C)c3)nc3ccccc23)CC1 [Example 114, 5-(((2S,4R)-4-fluoro-1-methylpyrrolidin-2-yl)methoxy)-2-methyl-N-(1-(2-(1-methyl-1H-pyrazol-4-yl)quinolin-4-yl)cyclopropyl)benzamide] |  |  | < 0.5 | 51.3 ± 6.52 |
| Cc1ccc(OCCN(C)C)cc1C(=O)N[C@H](C)c1cc(-c2cnn(C(C)(C)C)c2)nc2ccccc12 [Example 65, (R)—N-(1-(2-(1-(tert-butyl)-1H-pyrazol-4-yl)quinolin-4-yl)ethyl)-5-(2-(dimethyl-amino)ethoxy)-2-methylbenzamide] |  |  | < 0.5 | 19.1 ± 2.75 |
| Cc1ccc(N(C)CC2CN(C)C2)cc1C(=O)N[C@H](C)c1cc(-c2cnn(C)c2)nc2ccccc12 [Example 89, (R)-2-methyl-5-(methyl((1-methylazetidin-3-yl)methyl)amino)-N-(1-(2-(1-methyl-1H-pyrazol-4-yl)quinolin-4-yl)ethyl)benzamide] |  |  | 1 to 5 | 89.3 |
| Cc1ccc(OCCN(C)C)cc1C(=O)N[C@H](C)c1cc(-c2cnn(C(C)C)c2)nc2ccccc12 [Example 14, (R)-5-(2-(dimethylamino)ethoxy)-N-(1-(2-(1-isopropyl-1H-pyrazol-4-yl)quinolin-4-yl)ethyl)-2-methylbenzamide] |  |  | < 0.5 | 37.7 ± 5.87 |
| Cc1ccc(N2CC[C@@H](N(C)C)C2)cc1C(=O)N[C@H](C)c1cc(-c2cnn(C)c2)nc2ccccc12 [Example 96, 5-((R)-3-(dimethylamino)pyrrolidin-1-yl)-2-methyl-N—((R)-1-(2-(1-methyl-1H-pyrazol-4-yl)quinolin-4-yl)ethyl)benzamide] |  |  | < 0.5 | 28.8 |
| Cc1ccc(OCCN(C)C)cc1C(=O)N[C@H](C)c1cc(N2CCOCC2)nc2ccccc12 [Example 45, (R)-5-(2-(dimethylamino)ethoxy)-2-methyl-N-(1-(2-morpholinoquinoline-4-yl)ethyl)benzamide] |  |  | 0.5 to 1 | 166 ± 33.2 |
| Cc1ccc(OCCN(C)C)cc1C(=O)N[C@H](C)c1cc(-c2ccc(CN)s2)nc2ccccc12 [Example 55, (R)—N-(1-(2-(5-(aminomethyl)thiophen-2-yl)quinolin-4-yl)-ethyl)-5-(2-(dimethylamino)ethoxy)-2-methylbenzamide] |  |  | < 0.5 | 34.6 ± 8.18 |
| Cc1ccc(OC[C@@H]2CCCN2C)cc1C(=O)N[C@H](C)c1cc(-c2cnn(C)c2)nc2ccccc12 [Example 84, 2-methyl-N—((R)-1-(2-(1-methyl-1H-pyrazol-4-yl)quinolin-4-yl)ethyl)-5-(((S)-1-methylpyrrolidin-2-yl)methoxy)benzamide] |  |  | < 0.5 | 103 ± 24.4 |
| Cc1ccc(OCCN(C)C)cc1C(=O)N[C@H](C)c1cc(-c2ccc(N3CCN(C)CC3)s2)nc2ccccc12 [Example 48, (R)-5-(2-(dimethylamino)ethoxy)-2-methyl-N-(1-(2-(5-(4-methylpiperazin-1-yl)thiophen-2-yl)quinolin-4-yl)ethyl)benzamide] |  |  | < 0.5 | 15.4 ± 7.94 |
| Cc1ccc(OCCN(C)C)cc1C(=O)N[C@H](C)c1cc(-c2cncnc2)nc2ccccc12 [Example 57, (R)-5-(2-(dimethylamino)ethoxy)-2-methyl-N-(1-(2-(pyrimidin-5-yl)quinolin-4-yl)ethyl)benzamide] |  |  | 0.5 to 1 | 74.6 ± 17.4 |
| COCCn1cc(-c2cc([C@@H](C)NC(=O)c3cc(OCCN(C)C)ccc3C)c3ccccc3n2)cn1 [Example 6, (R)-5-(2-(dimethylamino)ethoxy)-N-(1-(2-(1-(2-methoxyethyl)-1H-pyrazol-4-yl)quinolin-4-yl)ethyl)-2-methylbenzamide] |  |  | < 0.5 | 200 ± 86.4 |
| Cc1ccc(N2CCN(C)C3(CC3)C2)cc1C(=O)N[C@H](C)c1cc(-c2ccn(C)n2)nc2ccccc12 [Example 101, (R)-2-methyl-N-(1-(2-(1-methyl-1H-pyrazol-3-yl)quinolin-4-yl)ethyl)-5-(4-methyl-4,7-diazaspiro[2.5]octan-7-yl)benzamide] |  |  | 0.5 to 1 | 40.8 ± 4.27 |
| Cc1ccc(OCCN(C)C)cc1C(=O)N[C@H](C)c1cc(-c2cnn(C(F)F)c2)nc2ccccc12 [Example 3, (R)—N-(1-(2-(1-(difluoromethyl)-1H-pyrazol-4-yl)quinolin-4-yl)ethyl)-5-(2-(dimethylamino)ethoxy)-2-methylbenzamide] |  |  | < 0.5 | 15.2 ± 2.54 |
| Cc1ccc(OC2CN(C)C2)cc1C(=O)N[C@H](C)c1cc(-c2cnn(C)c2)nc2ccccc12 [Example 90, (R)-2-methyl-N-(1-(2-(1-methyl-1H-pyrazol-4-yl)quinolin-4-yl)ethyl)-5-((1-methylazetidin-3-yl)oxy)benzamide] |  |  | < 0.5 | 72.5 ± 2.08 |
| Cc1ccc(N(C)C2CN(C)C2)cc1C(=O)N[C@H](C)c1cc(-c2cnn(C)c2)nc2ccccc12 [Example 88, (R)-2-methyl-5-(methyl(1-methylazetidin-3-yl)amino)-N-(1-(2-(1-methyl-1H-pyrazol-4-yl)quinolin-4-yl)ethyl)benzamide] |  |  | 1 to 5 | 97.4 ± 6.51 |
| CSc1ccc(-c2cc([C@@H](C)NC(=O)c3cc(OCCN(C)C)ccc3C)c3ccccc3n2)cc1 [Example 70, (R)-5-(2-(dimethylamino)ethoxy)-2-methyl-N-(1-(2-(4-(methylthio)phenyl)quinolin-4-yl)ethyl)benzamide] |  |  | < 0.5 | 8.5 ± 2.01 |
| Cc1ccc(OCCN(C)C)cc1C(=O)N[C@H](C)c1cc(-c2cnn(CC(F)(F)F)c2)nc2ccccc12 [Example 10, (R)-5-(2-(dimethylamino)ethoxy)-2-methyl-N-(1-(2-(1-(2,2,2-trifluoroethyl)-1H-pyrazol-4-yl)quinolin-4-yl)ethyl)benzamide] |  |  | < 0.5 | 60.8 ± 14.1 |
| Cc1ccc(OCCN(C)C)cc1C(=O)N[C@H](C)c1cc(-c2ccnn2C)nc2ccccc12 [Example 13, (R)-5-(2-(dimethylamino)ethoxy)-2-methyl-N-(1-(2-(1-methyl-1H-pyrazol-5-yl)quinolin-4-yl)ethyl)benzamide] |  |  | < 0.5 | 60 ± 8.43 |
| Cc1ccc(N2CC3CCC(C2)N3C)cc1C(=O)N[C@H](C)c1cc(-c2ccn(C)n2)nc2ccccc12 [Example 102, 2-methyl-N—((R)-1-(2-(1-methyl-1H-pyrazol-3-yl)quinolin-4-yl)ethyl)-5-(8-methyl-3,8-diazabicyclo[3.2.1]octan-3-yl)benzamide] | < 0.5 | 15.2 ± 1.09 |  |  |
| CCn1ccc(-c2cc([C@@H](C)NC(=O)c3cc(OC[C@H]4CCCN4C)ccc3C)c3ccccc3n2)n1 [Example 110, N—((R)-1-(2-(1-ethyl-1H-pyrazol-3-yl)quinolin-4-yl)ethyl)-2-methyl-5-(((R)-1-methylpyrrolidin-2-yl)methoxy)benzamide] |  |  | < 0.5 | 46.3 ± 13.9 |
| Cc1ccc(OCCN(C)C)cc1C(=O)N[C@@H](C)c1cc(-c2cccs2)nc2ccccc12 [Example 2, (S)-5-(2-(dimethylamino)ethoxy)-2-methyl-N-(1-(2-(thiophen-2-yl)quinolin-4-yl)ethyl)benzamide] |  |  | 1 to 5 | 11.4 ± 0.79 |
| CCn1ccc(-c2cc([C@@H](C)NC(=O)c3cc(N4CCN(C)CC4)ccc3C)c3ccccc3n2)n1 [Example 108, (R)—N-(1-(2-(1-ethyl-1H-pyrazol-3-yl)quinolin-4-yl)ethyl)-2-methyl-5-(4-methylpiperazin-1-yl)benzamide] |  |  | < 0.5 | 18.5 ± 1.4 |
| Cc1ccc(OCCN(C)C)cc1C(=O)N[C@H](C)c1cc(-c2cccs2)nc2ccccc12 [Example 1, (R)-5-(2-(dimethylamino)ethoxy)-2-methyl-N-(1-(2-(thiophen-2-yl)quinolin-4-yl)ethyl)benzamide] |  |  | < 0.5 | 12.2 ± 0.85 |
| Cc1ccc(OCCN(C)C)cc1C(=O)N[C@H](C)c1cc(-c2ccc(N)nc2)nc2ccccc12 [Example 9, (R)—N-(1-(2-(6-aminopyridin-3-yl)quinolin-4-yl)ethyl)-5-(2-(dimethylamino)ethoxy)-2-methylbenzamide] |  |  | < 0.5 | 36.2 ± 6.83 |
